Publication PMC11272598, “RG7774 (Vicasinabin), an orally bioavailable cannabinoid receptor 2 (CB2R) agonist, decreases retinal vascular permeability, leukocyte adhesion, and ocular inflammation in animal models” (Frontiers in Pharmacology, 2024)

Key:
[1] = molecular target: T1, endogenous CB2R (Homo sapiens, UniProt P34972); assay: Forskolin-stimulated cAMP in Jurkat cells; format: cell-based; conditions: data not shown
T1 construct: endogenous CB2R in human Jurkat cells; endogenous in cells; host or cells: Jurkat cells
T1 sequence (P34972 whole entry): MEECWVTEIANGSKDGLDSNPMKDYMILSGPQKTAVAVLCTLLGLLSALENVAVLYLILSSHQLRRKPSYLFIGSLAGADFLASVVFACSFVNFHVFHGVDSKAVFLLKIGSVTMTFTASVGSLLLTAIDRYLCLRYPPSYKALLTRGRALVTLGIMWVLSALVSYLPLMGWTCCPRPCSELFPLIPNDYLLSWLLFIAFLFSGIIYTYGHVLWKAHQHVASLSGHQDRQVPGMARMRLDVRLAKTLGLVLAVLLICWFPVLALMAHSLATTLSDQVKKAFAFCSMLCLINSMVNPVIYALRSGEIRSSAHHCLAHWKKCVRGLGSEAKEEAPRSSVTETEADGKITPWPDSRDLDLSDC

[2] = molecular target: 5-HT2C (h) (Homo sapiens, UniProt P28335); assay: CEREP radioligand binding; conditions: radioligand [^3H]-mesulergine
5-HT2C (h), sequence (P28335 33-458): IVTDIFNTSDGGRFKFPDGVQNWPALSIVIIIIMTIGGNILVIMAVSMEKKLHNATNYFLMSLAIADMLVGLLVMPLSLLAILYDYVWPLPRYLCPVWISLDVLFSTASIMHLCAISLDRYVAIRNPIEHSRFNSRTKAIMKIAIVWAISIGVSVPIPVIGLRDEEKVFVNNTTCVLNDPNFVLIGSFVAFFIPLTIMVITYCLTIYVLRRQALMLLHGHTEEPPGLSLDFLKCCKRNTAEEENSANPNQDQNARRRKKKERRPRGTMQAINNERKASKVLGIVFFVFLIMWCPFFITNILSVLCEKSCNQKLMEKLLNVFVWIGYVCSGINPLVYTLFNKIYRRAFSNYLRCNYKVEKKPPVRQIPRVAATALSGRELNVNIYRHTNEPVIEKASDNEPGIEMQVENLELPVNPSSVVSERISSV
Text: (§1) Supplement Table1.docx, table 3: Supplementary Table S3. RG7774 binding to non-CB1R/CB2R receptors, ion channels, transporters, and enzymes (CEREP, Celle l’Evescault, France; http://www.cerep.fr). | column: % inhibition of control SB (n = 2)

[3] = molecular target: 5-HT5A (h) (Homo sapiens, UniProt P47898); assay: CEREP radioligand binding; conditions: radioligand [^3H]-LSD
5-HT5A (h), sequence (P47898 whole entry): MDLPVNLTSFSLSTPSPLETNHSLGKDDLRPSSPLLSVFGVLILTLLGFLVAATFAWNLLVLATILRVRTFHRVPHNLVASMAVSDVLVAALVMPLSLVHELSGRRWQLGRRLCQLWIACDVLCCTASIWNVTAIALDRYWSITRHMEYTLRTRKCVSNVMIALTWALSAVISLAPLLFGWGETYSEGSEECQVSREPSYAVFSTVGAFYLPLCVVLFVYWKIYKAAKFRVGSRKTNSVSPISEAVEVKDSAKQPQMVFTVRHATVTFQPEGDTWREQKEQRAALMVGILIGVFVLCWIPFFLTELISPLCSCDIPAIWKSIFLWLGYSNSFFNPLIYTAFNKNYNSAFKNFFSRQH
Text: as §1

[4] = molecular target: A2A (h) (Homo sapiens, UniProt P29274); assay: CEREP radioligand binding; conditions: radioligand [^3H]-CGS 21680
A2A (h), sequence (P29274 whole entry): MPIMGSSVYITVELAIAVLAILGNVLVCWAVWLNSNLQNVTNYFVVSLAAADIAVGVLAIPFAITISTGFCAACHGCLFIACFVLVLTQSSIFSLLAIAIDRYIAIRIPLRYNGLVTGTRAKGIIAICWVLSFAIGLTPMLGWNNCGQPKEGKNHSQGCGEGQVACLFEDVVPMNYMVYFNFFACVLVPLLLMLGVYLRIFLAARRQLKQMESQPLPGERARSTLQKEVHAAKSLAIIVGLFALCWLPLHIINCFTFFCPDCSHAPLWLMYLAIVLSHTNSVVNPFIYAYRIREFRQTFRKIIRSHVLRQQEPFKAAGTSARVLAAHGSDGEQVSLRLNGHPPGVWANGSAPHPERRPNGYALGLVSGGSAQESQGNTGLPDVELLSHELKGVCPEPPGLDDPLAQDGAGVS
Text: as §1

[5] = molecular target: A3 (h) (Homo sapiens, UniProt P0DMS8); assay: CEREP radioligand binding; conditions: radioligand [^125I]-AB-MECA
A3 (h), sequence (P0DMS8 whole entry): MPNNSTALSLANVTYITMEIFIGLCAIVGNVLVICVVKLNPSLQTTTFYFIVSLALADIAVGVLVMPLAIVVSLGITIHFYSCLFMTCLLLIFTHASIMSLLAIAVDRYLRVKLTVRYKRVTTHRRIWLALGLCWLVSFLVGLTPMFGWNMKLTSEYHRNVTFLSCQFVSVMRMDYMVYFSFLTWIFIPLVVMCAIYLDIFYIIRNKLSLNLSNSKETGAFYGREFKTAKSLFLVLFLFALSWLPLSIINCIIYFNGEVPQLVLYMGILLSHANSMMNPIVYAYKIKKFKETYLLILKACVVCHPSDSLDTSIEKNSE
Text: as §1

[6] = molecular target: AT2 (h) (Homo sapiens, UniProt P50052); assay: CEREP radioligand binding; conditions: radioligand [^125I]-CGP 42112A
Text: as §1

[7] = test system: Alpha 2 (non-selective); assay: CEREP radioligand binding; conditions: radioligand [^3H]-RX 821002
Text: as §1

[8] = molecular target: B2 (h) (Homo sapiens, UniProt P30411); assay: CEREP radioligand binding; conditions: radioligand [^3H]-bradykinin
Text: as §1

[9] = test system: BZD (central); assay: CEREP radioligand binding; conditions: radioligand [^3H]-flunitrazepam
Text: as §1

[10] = molecular target: CB1 (h) (Homo sapiens, UniProt P21554); assay: CEREP radioligand binding; conditions: radioligand [^3H]-CP 55940
CB1 (h), sequence (P21554 whole entry): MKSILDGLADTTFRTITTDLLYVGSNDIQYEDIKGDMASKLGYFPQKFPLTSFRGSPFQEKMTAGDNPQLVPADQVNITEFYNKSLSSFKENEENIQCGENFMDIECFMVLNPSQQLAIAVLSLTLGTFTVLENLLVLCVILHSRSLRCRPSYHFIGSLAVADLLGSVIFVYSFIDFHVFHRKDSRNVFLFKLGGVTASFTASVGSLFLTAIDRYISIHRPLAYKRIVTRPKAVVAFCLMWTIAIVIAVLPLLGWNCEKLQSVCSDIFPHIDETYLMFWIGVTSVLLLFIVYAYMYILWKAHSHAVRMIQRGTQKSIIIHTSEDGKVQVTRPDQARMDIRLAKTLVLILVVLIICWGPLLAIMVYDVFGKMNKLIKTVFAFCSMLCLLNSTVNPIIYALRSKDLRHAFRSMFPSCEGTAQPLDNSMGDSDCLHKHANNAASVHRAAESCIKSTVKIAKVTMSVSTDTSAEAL
Text: as §1

[11] = molecular target: CCK1 (CCKA) (h) (Homo sapiens, UniProt P32238); assay: CEREP radioligand binding; conditions: radioligand [^125I]-CCK-8s
Text: as §1

[12] = molecular target: EP2 (h) (Homo sapiens, UniProt P43116); assay: CEREP radioligand binding; conditions: radioligand [^3H]-PGE2
EP2 (h), sequence (P43116 whole entry): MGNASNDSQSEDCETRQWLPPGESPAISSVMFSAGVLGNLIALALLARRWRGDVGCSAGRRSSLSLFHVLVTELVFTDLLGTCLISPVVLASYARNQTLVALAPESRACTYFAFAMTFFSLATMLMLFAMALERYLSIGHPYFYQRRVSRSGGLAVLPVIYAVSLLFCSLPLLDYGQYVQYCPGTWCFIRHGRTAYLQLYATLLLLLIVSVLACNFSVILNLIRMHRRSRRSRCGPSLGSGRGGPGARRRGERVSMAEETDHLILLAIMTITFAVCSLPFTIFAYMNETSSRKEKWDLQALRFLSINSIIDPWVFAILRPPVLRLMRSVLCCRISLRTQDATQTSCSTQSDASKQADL
Text: as §1

[13] = molecular target: ETA (h) (Homo sapiens, UniProt P25101); assay: CEREP radioligand binding; conditions: radioligand [^125I]-endothelin-1
ETA (h), sequence (P25101 21-427): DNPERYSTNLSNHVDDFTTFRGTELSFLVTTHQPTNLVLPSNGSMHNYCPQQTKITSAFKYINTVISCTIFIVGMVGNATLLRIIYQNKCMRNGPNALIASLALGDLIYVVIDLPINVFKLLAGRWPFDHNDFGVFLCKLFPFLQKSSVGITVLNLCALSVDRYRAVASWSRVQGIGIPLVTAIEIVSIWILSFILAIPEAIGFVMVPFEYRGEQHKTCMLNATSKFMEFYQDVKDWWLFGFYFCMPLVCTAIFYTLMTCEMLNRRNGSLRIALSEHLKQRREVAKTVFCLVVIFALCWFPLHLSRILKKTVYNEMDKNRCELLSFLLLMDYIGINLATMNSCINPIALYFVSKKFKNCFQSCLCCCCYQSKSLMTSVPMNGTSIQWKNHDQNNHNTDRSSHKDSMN
Text: as §1

[14] = test system: GABA (non-selective); assay: CEREP radioligand binding; conditions: radioligand [^3H]-GABA
Text: as §1

[15] = molecular target: H2 (h) (Homo sapiens, UniProt P25021); assay: CEREP radioligand binding; conditions: radioligand [^125I]-APT
H2 (h), sequence (P25021 whole entry): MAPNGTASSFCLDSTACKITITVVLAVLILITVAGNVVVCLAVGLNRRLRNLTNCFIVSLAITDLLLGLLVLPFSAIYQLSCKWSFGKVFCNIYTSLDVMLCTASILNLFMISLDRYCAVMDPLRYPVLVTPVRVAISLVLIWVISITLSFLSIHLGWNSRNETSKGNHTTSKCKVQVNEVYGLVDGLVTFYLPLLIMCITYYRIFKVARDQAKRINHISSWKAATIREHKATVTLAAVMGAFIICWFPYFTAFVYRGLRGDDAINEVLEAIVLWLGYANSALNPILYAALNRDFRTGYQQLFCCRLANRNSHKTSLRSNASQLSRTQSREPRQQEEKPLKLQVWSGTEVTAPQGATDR
Text: as §1

[16] = test system: KV channel; assay: CEREP radioligand binding; conditions: radioligand [^125I]-α-dendrotoxin
Text: as §1

[17] = molecular target: M2 (h) (Homo sapiens, UniProt P08172); assay: CEREP radioligand binding; conditions: radioligand [^3H]-AF-DX 384
M2 (h), sequence (P08172 whole entry): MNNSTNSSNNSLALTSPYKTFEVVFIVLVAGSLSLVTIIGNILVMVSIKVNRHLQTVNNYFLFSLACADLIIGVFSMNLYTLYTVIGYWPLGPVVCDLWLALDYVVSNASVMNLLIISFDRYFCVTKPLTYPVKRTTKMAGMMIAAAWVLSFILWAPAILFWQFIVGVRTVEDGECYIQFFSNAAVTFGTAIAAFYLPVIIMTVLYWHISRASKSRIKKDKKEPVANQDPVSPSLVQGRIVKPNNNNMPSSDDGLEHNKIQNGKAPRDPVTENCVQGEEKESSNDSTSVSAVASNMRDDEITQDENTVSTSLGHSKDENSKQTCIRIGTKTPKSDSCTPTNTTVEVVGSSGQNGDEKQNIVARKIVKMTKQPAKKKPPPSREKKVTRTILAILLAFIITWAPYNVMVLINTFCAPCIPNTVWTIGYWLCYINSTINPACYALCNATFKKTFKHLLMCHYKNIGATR
Text: as §1

[18] = molecular target: MC4 (h) (Homo sapiens, UniProt P32245); assay: CEREP radioligand binding; conditions: radioligand [^125I]-NDP-α-MSH
MC4 (h), sequence (P32245 whole entry): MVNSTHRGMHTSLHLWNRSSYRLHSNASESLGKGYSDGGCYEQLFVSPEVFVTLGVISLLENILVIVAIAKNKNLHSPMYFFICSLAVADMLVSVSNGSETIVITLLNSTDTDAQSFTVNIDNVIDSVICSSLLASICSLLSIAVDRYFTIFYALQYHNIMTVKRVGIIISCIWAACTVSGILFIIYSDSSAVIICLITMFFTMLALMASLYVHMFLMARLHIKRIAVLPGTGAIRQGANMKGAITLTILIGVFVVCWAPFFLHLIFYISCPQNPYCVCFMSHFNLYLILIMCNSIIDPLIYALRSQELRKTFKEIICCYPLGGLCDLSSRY
Text: as §1

[19] = molecular target: MT1 (ML1A) (h) (Homo sapiens, UniProt P48039); assay: CEREP radioligand binding; conditions: radioligand [^125I]-2-iodomelatonin
Text: as §1

[20] = molecular target: NK2 (h) (Homo sapiens, UniProt P21452); assay: CEREP radioligand binding; conditions: radioligand [^125I]-NKA
Text: as §1

[21] = molecular target: NTS1 (NT1) (h) (Homo sapiens, UniProt P30989); assay: CEREP radioligand binding; conditions: radioligand [^125I]-Tyr3-neurotensin
Text: as §1

[22] = molecular target: Norepinephrine transporter (h) (Homo sapiens, UniProt P23975); assay: CEREP radioligand binding; conditions: radioligand [^3H]-nisoxetine
Norepinephrine transporter (h), sequence (P23975 whole entry): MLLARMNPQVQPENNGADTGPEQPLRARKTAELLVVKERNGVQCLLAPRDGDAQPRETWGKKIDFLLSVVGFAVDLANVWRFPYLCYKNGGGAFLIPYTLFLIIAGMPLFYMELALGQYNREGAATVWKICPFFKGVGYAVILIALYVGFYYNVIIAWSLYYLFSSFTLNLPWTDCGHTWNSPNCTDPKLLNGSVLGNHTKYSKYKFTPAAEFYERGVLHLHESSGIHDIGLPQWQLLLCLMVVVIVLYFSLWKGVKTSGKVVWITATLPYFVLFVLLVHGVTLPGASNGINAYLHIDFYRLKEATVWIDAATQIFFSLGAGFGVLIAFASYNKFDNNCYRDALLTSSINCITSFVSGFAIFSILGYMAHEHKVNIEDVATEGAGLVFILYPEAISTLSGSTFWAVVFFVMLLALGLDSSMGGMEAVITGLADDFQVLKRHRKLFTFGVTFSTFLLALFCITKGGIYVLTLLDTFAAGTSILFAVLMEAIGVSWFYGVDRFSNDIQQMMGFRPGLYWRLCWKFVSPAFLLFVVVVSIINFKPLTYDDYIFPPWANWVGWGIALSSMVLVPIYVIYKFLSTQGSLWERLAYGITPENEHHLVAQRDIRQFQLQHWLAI
Text: as §1

[23] = test system: P2Y; assay: CEREP radioligand binding; conditions: radioligand [^35S]-dATPαS
Text: as §1

[24] = test system: TNF-α; assay: CEREP radioligand binding; conditions: radioligand [^125I]-TNF-α
Text: as §1

[25] = molecular target: human CB1R (Homo sapiens, UniProt P21554); assay: Competition binding, [^3H]-CP55940, CHO cell membranes; design: expressed in transfected cells; host or cells: CHO cells (membranes); conditions: CHO cells
human CB1R, sequence (P21554 whole entry): as the sequence (P21554 whole entry) above
Description: Competition and saturation binding assays were performed using the radiolabeled CB1R/CB2R agonist [^3H]-CP55940 (PerkinElmer, Waltham, MA, United States) in recombinant cell systems, and the newly developed CB2R-selective agonist [^3H]-RO6753361 ([Chicca et al., 2024]) in cells expressing endogenous CB1R/CB2R. Competition assays were conducted by incubating 5, 40, or 40 µg of membrane protein from CHO cells, Jurkat cells or spleen cells, respectively, with 1.5 nM [^3H]-CP55940 or 1.5 nM [^3H]-RO6753361 in the presence or absence of increasing concentrations of ligand (RG7774 or control) for 2 h at 30°C in a final volume of 0.2 mL of assay buffer (50 mmol/L Tris-HCl, 5 mmol/L MgCl2, 2.5 mmol/L EDTA, and 0.5% fatty acid-free BSA [pH 7.4] and 1% DMSO), with gentle shaking. Saturation binding assays were conducted by incubating 1–3 μg, 40 μg, or 30–40 μg of membrane protein from CHO cells, Jurkat cells, or spleen tissue, respectively, with 12 concentrations in the range of 80–0.039 nM [^3H]-CP55940 or [^3H]-RO6753361 for 2 h at 30°C in a final volume of 0.2 mL/well of assay buffer without DMSO. […] IC50 values and Hill slopes were determined with a 4-parameter logistic model using ActivityBase (ID Business Solution, Guilford, United Kingdom) and pKi values were determined using the Cheng-Prusoff equation ([Cheng and Prusoff, 1973]).

SMILES: Cn1nnnc1Cn1nnc2c(N3CC[C@H](O)C3)nc(C(C)(C)C)nc21 [RG7774, (S)-1-(5-tert-butyl-3-[(1-methyl-1H-tetrazol-5-yl)methyl]-3H-[1,2,3]triazolo[4,5-d]pyrimidin-7-yl)pyrrolidin-3-ol]
- inhibition of forskolin-stimulated intracellular cAMP levels in Jurkat cells [1]: did not inhibit
- % inhibition of control SB (n = 2) [2]: 2.7%
- % inhibition of control SB (n = 2) [3]: 2.2%
- % inhibition of control SB (n = 2) [4]: 12.4%
- % inhibition of control SB (n = 2) [5]: –0.6%
- % inhibition of control SB (n = 2) [6]: 3.1%
- % inhibition of control SB (n = 2) [7]: –20.9%
- % inhibition of control SB (n = 2) [8]: –1.6%
- % inhibition of control SB (n = 2) [9]: –0.7%
- % inhibition of control SB (n = 2) [10]: –0.8%
- % inhibition of control SB (n = 2) [11]: –7.4%
- % inhibition of control SB (n = 2) [12]: –13.4%
- % inhibition of control SB (n = 2) [13]: –10.4%
- % inhibition of control SB (n = 2) [14]: –16.1%
- % inhibition of control SB (n = 2) [15]: –2.3%
- % inhibition of control SB (n = 2) [16]: –5.7%
- % inhibition of control SB (n = 2) [17]: –8.7%
- % inhibition of control SB (n = 2) [18]: –14.5%
- % inhibition of control SB (n = 2) [19]: 7.9%
- % inhibition of control SB (n = 2) [20]: –5.5%
- % inhibition of control SB (n = 2) [21]: –4.7%
- % inhibition of control SB (n = 2) [22]: 5.4%
- % inhibition of control SB (n = 2) [23]: 2.3%
- % inhibition of control SB (n = 2) [24]: 4.9%
- binding to recombinant human CB1R [25]: no binding
